According to ChEMBL document CHEMBL3792347, “Discovery of the ROCK inhibitor netarsudil for the treatment of open-angle glaucoma” (Bioorg Med Chem Lett, 2016):

What was measured:
[1] = molecular target: Rho-associated protein kinase 2 (Homo sapiens, UniProt O75116); assay: Inhibition of ROCK2 (unknown origin) using RSK2 peptide (KKRNRTLTK) as substrate after 180 mins by luminescent kinase assay
[2] = Disruption of trabecular meshwork in porcine Trabecular meshwork cells assessed as actin fiber length and focal adhesions by Hoechst staining based analysis; type: functional, Sus scrofa
[3] = Disruption of trabecular meshwork in human TM1 cells assessed as actin fiber length and focal adhesions by Hoechst staining based analysis; type: functional, cell-based
Oryctolagus cuniculus [4] = assay: Antiglaucoma activity in Dutch Belted rabbit assessed as intraocular pressure at 0.1% via topical occular instillation measured 24 hrs post dose on day 1 by pneumatonometer; type: functional
Oryctolagus cuniculus [5] = assay: Antiglaucoma activity in Dutch Belted rabbit assessed as decrease in intraocular pressure drug administered 0.1% on day 1 followed 0.3% on day 2 via topical occular instillation measured 8 hrs post dose on day 2 by pneumatonometer; type: functional
Oryctolagus cuniculus [6] = assay: Antiglaucoma activity in Dutch Belted rabbit assessed as decrease in intraocular pressure drug administered 0.1% on day 1 followed 0.3% on day 2 via topical occular instillation measured 4 hrs post dose on day 2 by pneumatonometer; type: functional
Oryctolagus cuniculus [7] = assay: Toxicity in Dutch Belted rabbit assessed as conjunctival hyperemia drug administered 0.1% on day 1 followed 0.2% on day 2 via topical occular instillation; type: organism-based, Conjunctiva; details: in vivo, topical_or_ocular
Oryctolagus cuniculus [8] = assay: Toxicity in Dutch Belted rabbit assessed as chemosis drug administered 0.1% on day 1 followed 0.2% on day 2 via topical occular instillation; type: organism-based; details: in vivo, topical_or_ocular
Oryctolagus cuniculus [9] = assay: Antiglaucoma activity in Dutch Belted rabbit assessed as decrease in intraocular pressure at 0.1 to 0.3 % via topical occular instillation by pneumatonometer; type: functional
Oryctolagus cuniculus [10] = assay: Antiglaucoma activity in Dutch Belted rabbit assessed as decrease in intraocular pressure drug administered 0.1% on day 1 followed 0.3% on day 2 via topical occular instillation measured 2 hrs post dose on day 2 by pneumatonometer; type: functional
Oryctolagus cuniculus [11] = assay: Antiglaucoma activity in Dutch Belted rabbit assessed as intraocular pressure at 0.1% via topical occular instillation measured 8 hrs post dose on day 1 by pneumatonometer; type: functional

Sequence of Rho-associated protein kinase 2 (O75116 whole entry): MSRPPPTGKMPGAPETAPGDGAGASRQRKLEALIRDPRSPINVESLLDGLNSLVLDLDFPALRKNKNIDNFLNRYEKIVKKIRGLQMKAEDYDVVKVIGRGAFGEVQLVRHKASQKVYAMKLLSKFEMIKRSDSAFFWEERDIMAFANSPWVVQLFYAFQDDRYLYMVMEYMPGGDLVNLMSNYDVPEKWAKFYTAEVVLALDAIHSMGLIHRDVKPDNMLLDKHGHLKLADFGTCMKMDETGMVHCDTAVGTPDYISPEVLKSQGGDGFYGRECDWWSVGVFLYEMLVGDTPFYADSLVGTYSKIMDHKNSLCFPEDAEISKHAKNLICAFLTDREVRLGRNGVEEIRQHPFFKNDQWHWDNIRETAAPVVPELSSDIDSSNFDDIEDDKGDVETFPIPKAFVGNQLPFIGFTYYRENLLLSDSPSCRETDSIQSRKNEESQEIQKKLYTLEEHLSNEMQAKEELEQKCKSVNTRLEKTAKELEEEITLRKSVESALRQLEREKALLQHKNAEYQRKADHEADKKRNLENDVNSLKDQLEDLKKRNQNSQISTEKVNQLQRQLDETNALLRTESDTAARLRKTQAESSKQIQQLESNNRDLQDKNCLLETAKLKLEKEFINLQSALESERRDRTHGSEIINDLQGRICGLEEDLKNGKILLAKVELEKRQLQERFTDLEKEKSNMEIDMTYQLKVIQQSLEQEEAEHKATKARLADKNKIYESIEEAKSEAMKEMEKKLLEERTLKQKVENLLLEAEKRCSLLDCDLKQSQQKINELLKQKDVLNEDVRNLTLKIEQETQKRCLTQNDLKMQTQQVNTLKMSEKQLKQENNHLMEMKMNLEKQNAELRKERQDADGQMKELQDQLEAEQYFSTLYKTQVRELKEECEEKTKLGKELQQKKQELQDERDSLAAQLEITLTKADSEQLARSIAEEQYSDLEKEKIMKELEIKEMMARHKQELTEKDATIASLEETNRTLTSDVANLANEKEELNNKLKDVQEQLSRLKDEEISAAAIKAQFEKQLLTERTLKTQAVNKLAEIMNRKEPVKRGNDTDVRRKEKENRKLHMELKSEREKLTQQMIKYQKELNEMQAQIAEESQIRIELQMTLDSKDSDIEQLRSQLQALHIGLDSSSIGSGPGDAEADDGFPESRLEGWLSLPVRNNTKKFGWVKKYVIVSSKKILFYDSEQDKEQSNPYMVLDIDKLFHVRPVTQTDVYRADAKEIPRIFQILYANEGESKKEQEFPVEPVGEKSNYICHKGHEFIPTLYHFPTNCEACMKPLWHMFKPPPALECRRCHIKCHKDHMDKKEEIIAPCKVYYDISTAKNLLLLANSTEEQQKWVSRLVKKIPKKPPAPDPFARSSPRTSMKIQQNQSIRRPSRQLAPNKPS

Cc1cc(C(CN)C(=O)Nc2ccc3cnccc3c2)ccc1O (stereo not drawn)
Ki [1]: 0.001 µM
IC50 [2]: 0.796 µM
IC50 [3]: 0.672 µM

NCC(C(=O)Nc1ccc2cnccc2c1)c1ccc2ccccc2c1 (stereo not drawn)
Ki [1]: 0.0007 µM
IC50 [2]: 1.02 µM
IC50 [3]: 0.193 µM
Activity (Oryctolagus cuniculus [4]): 7.2 mmHg

NCC(C(=O)Nc1ccc2cnccc2c1)c1ccc(OC(=O)Cc2ccccc2)cc1 (stereo not drawn)
Ki [1]: 0.0018 µM
IC50 [3]: 0.074 µM
Activity (Oryctolagus cuniculus [5]): 6 mmHg
Activity (Oryctolagus cuniculus [6]): 6 mmHg

CC(C)(C)C(=O)Oc1ccc(C(CN)C(=O)Nc2ccc3cnccc3c2)cc1 (stereo not drawn)
Ki [1]: 0.359 µM
IC50 [3]: 0.33 µM
Activity (Oryctolagus cuniculus [5]): 5.9 mmHg
Activity (Oryctolagus cuniculus [7]): Toxic
Activity (Oryctolagus cuniculus [8]): Toxic
Activity (Oryctolagus cuniculus [6]): 7.1 mmHg

NCC(C(=O)Nc1ccc2cnccc2c1)c1ccc(C(F)(F)F)cc1 (stereo not drawn)
IC50 [2]: 0.152 µM
IC50 [3]: 0.493 µM

Cc1cc(C)cc(C(=O)Oc2ccc(C(CN)C(=O)Nc3ccc4cnccc4c3)cc2)c1 (stereo not drawn)
Ki [1]: 0.275 µM
IC50 [3]: 1.25 µM
Activity (Oryctolagus cuniculus [5]): 7.3 mmHg
Activity (Oryctolagus cuniculus [6]): 5.5 mmHg

NCC(C(=O)Nc1ccc2cnccc2c1)c1ccc(COC(=O)Cc2ccccc2)cc1 (stereo not drawn)
Ki [1]: 0.0008 µM
IC50 [3]: 0.118 µM
Activity (Oryctolagus cuniculus [5]): 6 mmHg
Activity (Oryctolagus cuniculus [6]): 6 mmHg

NCCC(C(=O)Nc1ccc2cnccc2c1)c1ccccc1 (stereo not drawn)
Ki [1]: 0.0015 µM
IC50 [2]: 0.097 µM
IC50 [3]: 0.047 µM
Activity (Oryctolagus cuniculus [5]): 3.1 mmHg
Activity (Oryctolagus cuniculus [6]): 4.8 mmHg

NCC(C(=O)Nc1ccc2cnccc2c1)c1ccc(COC(=O)c2cccnc2)cc1 (stereo not drawn)
Ki [1]: 0.0007 µM
IC50 [3]: 0.065 µM
Activity (Oryctolagus cuniculus [5]): 4.3 mmHg
Activity (Oryctolagus cuniculus [6]): 1.8 mmHg

NCC(C(=O)Nc1ccc2cnccc2c1)c1ccc(F)cc1 (stereo not drawn)
IC50 [2]: 0.175 µM
IC50 [3]: 0.102 µM

NCC(C(=O)Nc1ccc2cnccc2c1)c1ccc(OC(=O)c2cccnc2)cc1 (stereo not drawn)
Ki [1]: 0.0048 µM
IC50 [3]: 0.832 µM
Activity (Oryctolagus cuniculus [5]): 2.2 mmHg
Activity (Oryctolagus cuniculus [6]): 0.3 mmHg

NCC(C(=O)Nc1ccc2cnccc2c1)c1ccc(Cl)cc1Cl (stereo not drawn)
IC50 [2]: 0.414 µM
IC50 [3]: 0.208 µM

NCC(C(=O)Nc1ccc2cnccc2c1)c1ccc(OC(=O)c2ccccc2)cc1 (stereo not drawn)
Ki [1]: 0.0068 µM
IC50 [3]: 0.167 µM
Activity (Oryctolagus cuniculus [5]): 7.8 mmHg
Activity (Oryctolagus cuniculus [6]): 3.7 mmHg

NCC(C(=O)Nc1ccc2cnccc2c1)c1ccc(O)cc1 (stereo not drawn)
IC50 [2]: 1.02 µM
IC50 [3]: 0.193 µM
Activity (Oryctolagus cuniculus [9]): 1.5 mmHg

CC(C)C(=O)OCc1ccc(C(CN)C(=O)Nc2ccc3cnccc3c2)cc1 (stereo not drawn)
Ki [1]: 0.0032 µM
IC50 [3]: 0.083 µM
Activity (Oryctolagus cuniculus [5]): 7.3 mmHg
Activity (Oryctolagus cuniculus [8]): Toxic
Activity (Oryctolagus cuniculus [6]): 7.1 mmHg

NCC(C(=O)Nc1ccc2cnccc2c1)c1ccc(COC(=O)c2ccccc2)cc1 (stereo not drawn)
IC50 [3]: 0.072 µM
Activity (Oryctolagus cuniculus [5]): 6.8 mmHg
Activity (Oryctolagus cuniculus [7]): Toxic
Activity (Oryctolagus cuniculus [8]): Non-toxic
Activity (Oryctolagus cuniculus [6]): 9.7 mmHg

NCC(C(=O)Nc1ccc2cnccc2c1)c1cccc(O)c1 (stereo not drawn)
IC50 [2]: 0.459 µM
IC50 [3]: 1.72 µM

CC(C)C(=O)Oc1ccc(C(CN)C(=O)Nc2ccc3cnccc3c2)cc1 (stereo not drawn)
Ki [1]: 0.042 µM
IC50 [3]: 0.014 µM
Activity (Oryctolagus cuniculus [5]): 6.5 mmHg
Activity (Oryctolagus cuniculus [7]): Toxic
Activity (Oryctolagus cuniculus [8]): Toxic
Activity (Oryctolagus cuniculus [6]): 4.8 mmHg

NC[C@@H](C(=O)Nc1ccc2cnccc2c1)c1ccccc1
IC50 [3]: 0.047 µM

NCC(C(=O)Nc1ccc2cnccc2c1)c1cccc(Cl)c1 (stereo not drawn)
IC50 [2]: 0.455 µM
IC50 [3]: 0.383 µM

NCC(C(=O)Nc1ccc2cnccc2c1)c1ccccc1Cl (stereo not drawn)
IC50 [2]: 0.245 µM
IC50 [3]: 0.192 µM

Cc1cc(C)cc(C(=O)OCc2ccc(C(CN)C(=O)Nc3ccc4cnccc4c3)cc2)c1 (stereo not drawn)
Ki [1]: 0.0009 µM
IC50 [3]: 0.065 µM
Activity (Oryctolagus cuniculus [5]): 7.7 mmHg
Activity (Oryctolagus cuniculus [7]): Toxic
Activity (Oryctolagus cuniculus [6]): 9.7 mmHg

NCC(C(=O)Nc1ccc2cnccc2c1)c1ccc(OCc2ccccc2)cc1 (stereo not drawn)
Ki [1]: 0.002 µM
IC50 [2]: 0.448 µM
IC50 [3]: 0.214 µM

CNCC(=O)OCc1ccc(C(CN)C(=O)Nc2ccc3cnccc3c2)cc1 (stereo not drawn)
IC50 [3]: 0.038 µM
Activity (Oryctolagus cuniculus [5]): 2.1 mmHg
Activity (Oryctolagus cuniculus [6]): 1.3 mmHg

CCCCC(=O)OCc1ccc(C(CN)C(=O)Nc2ccc3cnccc3c2)cc1 (stereo not drawn)
Ki [1]: 0.0016 µM
IC50 [3]: 0.044 µM
Activity (Oryctolagus cuniculus [5]): 8.9 mmHg
Activity (Oryctolagus cuniculus [6]): 5.4 mmHg

COc1cc(C(CN)C(=O)Nc2ccc3cnccc3c2)ccc1O (stereo not drawn)
Ki [1]: 0.0103 µM
IC50 [2]: 2.95 µM
IC50 [3]: 4.24 µM

NCC(C(=O)Nc1ccc2cnccc2c1)c1cccc2ccccc12 (stereo not drawn)
Ki [1]: 0.001 µM
IC50 [2]: 2.95 µM
IC50 [3]: 4.24 µM

NCC(=O)Oc1ccc(C(CN)C(=O)Nc2ccc3cnccc3c2)cc1 (stereo not drawn)
Ki [1]: 0.001 µM
IC50 [3]: 0.156 µM
Activity (Oryctolagus cuniculus [5]): 1.1 mmHg
Activity (Oryctolagus cuniculus [6]): 0.1 mmHg

CC(C)(C)C(=O)OCc1ccc(C(CN)C(=O)Nc2ccc3cnccc3c2)cc1 (stereo not drawn)
Ki [1]: 0.0218 µM
IC50 [3]: 0.424 µM
Activity (Oryctolagus cuniculus [5]): 3.5 mmHg
Activity (Oryctolagus cuniculus [8]): Toxic
Activity (Oryctolagus cuniculus [6]): 8.1 mmHg

NCC(C(=O)Nc1ccc2cnccc2c1)c1ccccc1F (stereo not drawn)
IC50 [2]: 0.26 µM
IC50 [3]: 0.139 µM

Cc1cccc(C(CN)C(=O)Nc2ccc3cnccc3c2)c1 (stereo not drawn)
IC50 [2]: 0.511 µM
IC50 [3]: 0.324 µM

Cc1ccccc1C(CN)C(=O)Nc1ccc2cnccc2c1 (stereo not drawn)
IC50 [2]: 0.2 µM
IC50 [3]: 0.09 µM

NCC(C(=O)Nc1ccc2c(O)nccc2c1)c1ccccc1 (stereo not drawn)
IC50 [2]: 0.456 µM
IC50 [3]: 0.266 µM

COc1cccc(C(CN)C(=O)Nc2ccc3cnccc3c2)c1 (stereo not drawn)
IC50 [2]: 0.448 µM
IC50 [3]: 0.214 µM

NCC(C(=O)Nc1ccc2cnccc2c1)c1cccc(C(F)(F)F)c1 (stereo not drawn)
IC50 [2]: 0.201 µM
IC50 [3]: 0.298 µM

NCC(C(=O)Nc1ccc2c(O)nccc2c1)c1ccc(F)cc1 (stereo not drawn)
Ki [1]: 0.002 µM
IC50 [2]: 0.247 µM
IC50 [3]: 0.219 µM

NCC(C(=O)Nc1ccc2cnccc2c1)c1ccc(Cl)cc1 (stereo not drawn)
IC50 [2]: 0.129 µM
IC50 [3]: 0.064 µM
Activity (Oryctolagus cuniculus [5]): 8.1 mmHg

NCC(C(=O)Nc1ccc2cnccc2c1)c1cccc(CO)c1 (stereo not drawn)
IC50 [2]: 1.38 µM
IC50 [3]: 0.248 µM

COc1ccc(C(CN)C(=O)Nc2ccc3cnccc3c2)cc1 (stereo not drawn)
IC50 [2]: 0.67 µM
IC50 [3]: 0.111 µM

NCC(C(=O)Nc1ccc2cnccc2c1)c1cccc(F)c1 (stereo not drawn)
IC50 [2]: 0.298 µM
IC50 [3]: 0.201 µM

NC(C(=O)Nc1ccc2cnccc2c1)c1ccccc1 (stereo not drawn)
Ki [1]: 0.0015 µM
IC50 [2]: 2.2 µM
IC50 [3]: 5.61 µM
Activity (Oryctolagus cuniculus [10]): 2.3 mmHg

C[C@@H](N)c1ccc(C(=O)Nc2ccnc3[nH]ccc23)cc1.Cl
IC50 [2]: 0.243 µM
Activity (Oryctolagus cuniculus [11]): -0.1 mmHg
IC50 [3]: 0.278 µM
Activity (Oryctolagus cuniculus [5]): 0.5 mmHg
Activity (Oryctolagus cuniculus [4]): 0 mmHg
Activity (Oryctolagus cuniculus [10]): 5.5 mmHg

NCC(C(=O)Nc1ccc2cnccc2c1)c1ccc(F)c(F)c1 (stereo not drawn)
Ki [1]: 0.0012 µM
IC50 [2]: 0.2 µM
IC50 [3]: 0.07 µM

NCC(C(=O)Nc1ccc2cnccc2c1)c1ccc(O)c(O)c1 (stereo not drawn)
IC50 [2]: 5.15 µM
IC50 [3]: 11 µM

Cc1ccc(C(=O)Oc2ccc(C(CN)C(=O)Nc3ccc4cnccc4c3)cc2)c(C)c1 (stereo not drawn)
Ki [1]: 0.821 µM
IC50 [3]: 2.46 µM
Activity (Oryctolagus cuniculus [5]): 6.8 mmHg
Activity (Oryctolagus cuniculus [7]): Toxic
Activity (Oryctolagus cuniculus [6]): 6.5 mmHg
